What all share (set-up): scale not given: the % may be the effect or the level left
Experiment [1] concerns the target T1, Megakaryocyte-associated tyrosine-protein kinase (Homo sapiens) (UniProt P42679).
T1 sequence (whole entry): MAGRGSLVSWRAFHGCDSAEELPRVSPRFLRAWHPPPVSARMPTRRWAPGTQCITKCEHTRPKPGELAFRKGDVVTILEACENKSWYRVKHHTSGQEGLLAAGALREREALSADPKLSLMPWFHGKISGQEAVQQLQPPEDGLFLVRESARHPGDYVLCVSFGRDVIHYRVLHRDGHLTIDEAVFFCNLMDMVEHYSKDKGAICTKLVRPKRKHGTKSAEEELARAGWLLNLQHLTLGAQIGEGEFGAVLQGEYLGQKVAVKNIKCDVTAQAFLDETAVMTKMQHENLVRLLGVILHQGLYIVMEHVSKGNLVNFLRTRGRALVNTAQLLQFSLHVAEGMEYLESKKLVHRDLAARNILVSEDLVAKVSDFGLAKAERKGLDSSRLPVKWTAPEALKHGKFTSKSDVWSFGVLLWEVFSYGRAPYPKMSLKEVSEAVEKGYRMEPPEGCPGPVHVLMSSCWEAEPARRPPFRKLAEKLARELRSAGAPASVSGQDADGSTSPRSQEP
The experiment is described as follows: Inhibition of human CTK/MATK assessed as enzyme activity at 1 uM using poly[Glu:Tyr] (4:1) as substrate preincubated for 20 mins followed by [gamma-33P]-ATP addition and measured after 120 mins by radiometric Hot-SpotSM Kinase assay relative to control.

Experiment [2] has as its target T2, Myosin light chain kinase (Homo sapiens) (UniProt Q32MK0).
T2 sequence (whole entry): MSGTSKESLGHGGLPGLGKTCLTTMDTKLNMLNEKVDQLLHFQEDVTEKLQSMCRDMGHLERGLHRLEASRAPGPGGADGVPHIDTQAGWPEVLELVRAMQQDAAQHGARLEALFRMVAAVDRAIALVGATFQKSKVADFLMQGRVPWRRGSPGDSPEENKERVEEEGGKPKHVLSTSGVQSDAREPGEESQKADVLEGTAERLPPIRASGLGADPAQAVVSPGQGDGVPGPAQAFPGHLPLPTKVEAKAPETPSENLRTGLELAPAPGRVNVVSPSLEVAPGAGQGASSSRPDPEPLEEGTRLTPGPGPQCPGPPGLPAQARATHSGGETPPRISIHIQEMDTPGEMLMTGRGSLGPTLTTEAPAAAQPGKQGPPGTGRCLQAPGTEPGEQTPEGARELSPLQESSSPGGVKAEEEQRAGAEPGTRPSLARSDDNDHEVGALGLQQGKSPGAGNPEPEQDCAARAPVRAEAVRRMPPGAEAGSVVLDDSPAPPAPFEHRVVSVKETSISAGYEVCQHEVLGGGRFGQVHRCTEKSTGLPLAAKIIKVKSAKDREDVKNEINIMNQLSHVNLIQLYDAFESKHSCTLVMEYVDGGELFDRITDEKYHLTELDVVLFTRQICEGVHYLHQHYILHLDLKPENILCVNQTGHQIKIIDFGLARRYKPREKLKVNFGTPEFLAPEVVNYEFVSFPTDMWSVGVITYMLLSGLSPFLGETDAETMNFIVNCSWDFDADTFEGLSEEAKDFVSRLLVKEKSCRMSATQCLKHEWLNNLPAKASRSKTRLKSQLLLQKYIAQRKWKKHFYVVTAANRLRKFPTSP
The experiment is described as follows: Inhibition of human MYLK3 assessed as enzyme activity at 1 uM using KKRPQRRYSNVF as substrate preincubated for 20 mins followed by [gamma-33P]-ATP addition and measured after 120 mins by radiometric Hot-SpotSM Kinase assay relative to control.

Experiment [3] concerns the target T3, Serine/threonine-protein kinase 3 (Homo sapiens) (UniProt Q13188).
T3 sequence (whole entry): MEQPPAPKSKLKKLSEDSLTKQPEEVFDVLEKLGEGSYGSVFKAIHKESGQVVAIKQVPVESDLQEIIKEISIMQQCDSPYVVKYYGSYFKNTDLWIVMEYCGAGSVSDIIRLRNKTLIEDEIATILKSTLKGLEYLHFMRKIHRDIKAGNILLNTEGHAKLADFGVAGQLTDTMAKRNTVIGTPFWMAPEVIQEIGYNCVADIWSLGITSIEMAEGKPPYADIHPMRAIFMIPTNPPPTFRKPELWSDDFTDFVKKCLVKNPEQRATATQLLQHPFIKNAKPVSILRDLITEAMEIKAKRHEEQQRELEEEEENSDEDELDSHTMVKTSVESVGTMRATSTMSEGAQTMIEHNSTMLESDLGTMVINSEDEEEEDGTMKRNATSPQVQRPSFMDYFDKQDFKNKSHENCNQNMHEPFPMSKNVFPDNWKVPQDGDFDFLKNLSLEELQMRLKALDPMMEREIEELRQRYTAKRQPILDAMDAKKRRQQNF
The experiment in a line: Inhibition of human MST2 assessed as enzyme activity at 1 uM using myelin basic protein as substrate preincubated for 20 mins followed by [gamma-33P]-ATP addition and measured after 120 mins by radiometric Hot-SpotSM Kinase assay relative to control.

Experiment [4] addresses T4, Serine/threonine-protein kinase 4 (Homo sapiens) (UniProt Q13043).
T4 sequence (whole entry): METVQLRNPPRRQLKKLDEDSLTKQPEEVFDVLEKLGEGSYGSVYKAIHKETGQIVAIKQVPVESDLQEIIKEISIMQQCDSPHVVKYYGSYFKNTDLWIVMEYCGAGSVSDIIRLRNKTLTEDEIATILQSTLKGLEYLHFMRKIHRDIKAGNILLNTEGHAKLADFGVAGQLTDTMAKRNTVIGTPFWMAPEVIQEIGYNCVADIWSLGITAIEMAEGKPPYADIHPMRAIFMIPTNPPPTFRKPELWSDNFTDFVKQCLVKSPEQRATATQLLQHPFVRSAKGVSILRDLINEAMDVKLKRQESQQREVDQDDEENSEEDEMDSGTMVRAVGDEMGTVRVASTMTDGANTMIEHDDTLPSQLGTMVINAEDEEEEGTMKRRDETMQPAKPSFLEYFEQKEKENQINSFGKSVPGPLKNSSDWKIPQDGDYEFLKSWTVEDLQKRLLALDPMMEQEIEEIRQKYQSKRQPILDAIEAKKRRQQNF
The experiment in a line: Inhibition of human MST1 assessed as enzyme activity at 1 uM using KKSRGDYMTMQIG as substrate preincubated for 20 mins followed by [gamma-33P]-ATP addition and measured after 120 mins by radiometric Hot-SpotSM Kinase assay relative to control.

Take `C[C@H](Nc1ncnc2nc[nH]c12)c1cc2cccc(Cl)c2c(=O)n1-c1ccccc1`: the Activity in experiment [1] came out at 105%; in experiment [2] it was 98.2%; in experiment [3], 94.5%; in experiment [4], 94.1%.

Take `CC[C@H](Nc1ncnc2[nH]cnc12)c1nc2cccc(F)c2c(=O)n1-c1ccccc1`: the Activity in experiment [1] came out at 105%; in experiment [2], 91.8%; in experiment [3], 96.9%; in experiment [4], 89.8%.

In the case of `CC(C)Oc1ccc(-c2nn([C@@H](C)c3oc4ccc(F)cc4c(=O)c3-c3cccc(F)c3)c3ncnc(N)c23)cc1F` [UMBRALISIB], the Activity in experiment [1] came out at 106%; in experiment [2], 105%; in experiment [3], 97.4%; in experiment [4], 95.1%.

(Values after ChEMBL document CHEMBL5715954, “Silencing c-Myc translation as a therapeutic strategy through targeting PI3Kδ and CK1ε in hematological malignancies” (Blood, 2017).)
